Measurements reported in US20250276078A1, “Camptothecin Derivative And Ligand-drug Conjugate Thereof” (Baili-Bio (Chengdu) Pharmaceutical Co., Ltd., priority 2020, published 2025).
pIC50: −log10 of the molar value. Where two headings read alike, the source gives them in different places.

Assays:
[1] = Log P value test (partition coefficient in n-octane (oil) and water); assay type: physicochemical
Description: The log P values are closely related to water solubility, membrane permeability, in vivo ADME process and affinity between the compound and the receptor, which play a key role in the process of the compound's penetration through the biofilm. The log P value was obtained by testing the partition coefficient of camptothecin drug in n-octane (oil) and water, the results are shown as follows: […]

[2] = system: A431; experiment: Cell activity test of camptothecin chiral derivatives (MTS); assay type: cell-based
Protocol: (§1) Cell-based in vitro experiments are used to determine cell survival, cytotoxicity and programmed cell death induced by camptothecin drugs disclosed in the present invention.
(§2) The in vitro efficacy of camptothecin was determined by cell proliferation test. CellTiter 96® Aqueous One Solution Cell Proliferation Assay is commercially available (Promega Corp., Madison, WI). CellTiter96® Aqueous One Solution Cell Proliferation Assay (a) is a test reagent that can be used to measure the number of viable cells from cell proliferation and cytotoxicity tests by colorimetric assay. The reagent contains a new tetrazolium compound [3-(4, 5-dimethylthiazol-2-yl)-5-(3-carboxymethoxyphenyl)-2-(4-sulfophenyl)-2h-Tetrazolium, inner salt; MTS] and an electron coupling agent (phenazine ethosulfate; PES). PES has enhanced chemical stability, which allows it to be mixed with MTS to form stable solutions. MTS (Owen's reagent) is reduced by cellular organisms into a variety of colored methylate products, which can be dissolved directly in the medium. This transformation is most likely accomplished with the help of NADPH or NADH produced by dehydrogenase in metabolically active cells. For detection, appropriate amount of CellTiter96® Aqueous One Solution Reagent is added directly into the medium of culture plate hole, incubated for 1-4 hours, and the absorbance value of 490 nm is read with enzyme label instrument.
(§3) The amount of methylate detected at 490 nm is proportional to the number of live cells in the culture. Due to the dissolubility of the methyls of MTS in tissue medium, CellTiter 96® Aqueous One Solution is performed with fewer steps than the MTT or INT methods.
(§4) The 96-well plates were uniformly inoculated with appropriate cell density and incubated at 37° C. in carbon dioxide incubator. 24 hours later, the cells were confirmed to be normal under the microscope, and camptothecin drugs were administered. Camptothecin drug was diluted in the medium (initial concentration was 1 uM, 7 times diluted, with 8 concentration points. The last two columns were control group (i.e., cell+medium, no drug treatment) and blank group (i.e., cell-free, only containing medium, for background subtraction). After fully mixing the drug, the drug was added into the corresponding cell hole and incubated at 37° C. in a carbon dioxide incubator for 3 days. After 3 days, 20 ul MTS (Promegm, G3581) were added to each well for 2 h, and a machine reader (from Molecular Device, model: SpectraMAX190) took readings at 490 nM. By detecting the activity of dehydrogenase in mitochondria, IC50 was calculated to evaluate the inhibitory effect of camptothecin on cell proliferation. The corresponding test results of camptothecin chiral derivative IC50 (nM) were as follows: PGP-99 T2

[3] = system: BxPc-3; experiment: as above; assay type: cell-based
Protocol: as §1, §2, §3, §4

[4] = system: SK-BR-3; experiment: as above; assay type: cell-based
Protocol: as §1, §2, §3, §4

[5] = system: SW620; experiment: as above; assay type: cell-based
Protocol: as §1, §2, §3, §4

[6] = system: MDA-MB-468; experiment: as above; assay type: cell-based
Protocol: as §1
as §2, with “The reagent contains a new tetrazolium compound [3-(4, 5-dimethylthiazol-2-yl)-5-(3-carboxymethoxyphenyl)-2-(4-sulfophenyl)-2h-Tetrazolium, inner salt; MTS] and an electron coupling agent (phenazine ethosulfate; PES).” left out
as §3
as §4, with “24 hours later, the cells were confirmed to be normal under the microscope, and camptothecin drugs were administered.” left out, “proliferation.” for “proliferation. The corresponding test results of camptothecin chiral derivative IC50 (nM) were as follows: PGP-99 T2”

[7] = Homo sapiens, A-431, 72 h, A431, 3 days, read-out: IC50
[8] = Homo sapiens, 72 h, BxPc-3, 3 days, read-out: IC50
[9] = Homo sapiens, 72 h, SK-BR-3, 3 days, read-out: IC50
[10] = Homo sapiens, SW-620, 72 h, SW620, 3 days, read-out: IC50
[11] = Homo sapiens, MDA-MB-468, 72 h, read-out: IC50

Which logD hydrocarbon water ([1]; n-octane (oil) / water, read-out: LogP) does the source give for `CC[C@@]1(O)C(=O)OCc2c1cc1n(c2=O)Cc2c-1nc1cc(F)c(C)c3c1c2[C@H](NC(=O)CO)CC3` [Compound 2] here?
The logD hydrocarbon water was 1.8.

And the pIC50 ([2]; Homo sapiens, A-431, 72 h)?
The pIC50 was 8.35.

And the pIC50 ([3]; Homo sapiens, BXPC-3, 72 h)?
Its pIC50 is 8.40.

What about the pIC50 ([4]; Homo sapiens, SK-BR-3, 72 h) of the same compound?
The pIC50 was 8.75.

And the pIC50 ([5]; Homo sapiens, SW-620, 72 h)?
Its pIC50 is 8.54.

What about the pIC50 ([6]; Homo sapiens, MDA-MB-468, 72 h) of the same compound?
Its pIC50 is 11.70.

With `CC[C@@]1(O)C(=O)OCc2c1cc1n(c2=O)Cc2c-1nc1cc(F)c(C)c3c1c2[C@H](NC(=O)[C@H](C)O)CC3` [Compound 3] as the compound, how does the logD hydrocarbon water ([1]; LogP) read?
Its logD hydrocarbon water is 1.6.

And the pIC50 [2, 7]?
The pIC50 was 8.38.

What about the pIC50 [3, 8] of the same compound?
The pIC50 was 8.44.

And the pIC50 [4, 9]?
Its pIC50 is 7.82.

And the pIC50 [5, 10]?
The pIC50 was 8.89.

What about the pIC50 [6, 11] of the same compound?
Its pIC50 is 9.66.

Which logD hydrocarbon water ([1]; LogP) does the source give for `CC[C@@]1(O)C(=O)OCc2c1cc1n(c2=O)Cc2c-1nc1cc(F)c(C)c3c1c2[C@H](NC(=O)[C@@H](C)O)CC3` [Compound 4] here?
The logD hydrocarbon water was 1.9.

What about the pIC50 [2, 7] of the same compound?
The pIC50 was 8.51.

What about the pIC50 [3, 8] of the same compound?
The pIC50 was 8.55.

And the pIC50 [5, 10]?
The pIC50 was 9.04.

With `CC[C@@]1(O)C(=O)OCc2c1cc1n(c2=O)Cc2c-1nc1cc(F)c(C)c3c1c2[C@@H](NC(=O)[C@H](O)C(F)(F)F)CC3` [Compound 5] as the compound, how does the logD hydrocarbon water ([1]; LogP) read?
Its logD hydrocarbon water is 1.9.

And the pIC50 [2, 7]?
The pIC50 was 8.55.

And the pIC50 [3, 8]?
The pIC50 was 8.76.

And the pIC50 [4, 9]?
Its pIC50 is 8.07.

And the pIC50 [5, 10]?
Its pIC50 is 9.06.

And the pIC50 [6, 11]?
The pIC50 was 8.05.

What does the source list for `CC[C@@]1(O)C(=O)OCc2c1cc1n(c2=O)Cc2c-1nc1cc(F)c(C)c3c1c2[C@H](NC(=O)[C@@H](O)C(F)(F)F)CC3` [Compound 6]?
logD hydrocarbon water ([1]; LogP): 1.9; pIC50 [2, 7]: 9.16; pIC50 [3, 8]: 9.38; pIC50 [4, 9]: 8.04; pIC50 [5, 10]: 10.03

For `CC[C@@]1(O)C(=O)OCc2c1cc1n(c2=O)Cc2c-1nc1cc(F)c(C)c3c1c2[C@H](NC(=O)[C@@H](O)C1CC1)CC3` [Compound 7], which logD hydrocarbon water ([1]; LogP) is on record?
The logD hydrocarbon water was 1.7.

What about the pIC50 [2, 7] of the same compound?
Its pIC50 is 9.02.

What about the pIC50 [3, 8] of the same compound?
The pIC50 was 9.10.

What about the pIC50 [4, 9] of the same compound?
Its pIC50 is > 11.00.

And the pIC50 [5, 10]?
Its pIC50 is 9.05.

And the pIC50 [6, 11]?
The pIC50 was > 12.00.

Which logD hydrocarbon water ([1]; LogP) does the source give for `CC[C@@]1(O)C(=O)OCc2c1cc1n(c2=O)Cc2c-1nc1cc(F)c(C)c3c1c2[C@H](NC(=O)[C@H](O)C1CC1)CC3` [Compound 8] here?
The logD hydrocarbon water was 1.8.

And the pIC50 [2, 7]?
Its pIC50 is 8.73.

And the pIC50 [3, 8]?
Its pIC50 is 8.96.

What about the pIC50 [4, 9] of the same compound?
Its pIC50 is > 11.00.

And the pIC50 [5, 10]?
The pIC50 was 8.93.

And the pIC50 [6, 11]?
The pIC50 was > 12.00.

What does the source list for `CC[C@@]1(O)C(=O)OCc2c1cc1n(c2=O)Cc2c-1nc1cc(F)c(C)c3c1c2[C@H](NC(=O)C1(CO)CCC1)CC3` [Compound 9]?
logD hydrocarbon water ([1]; LogP): 1.6; pIC50 [2, 7]: 8.82; pIC50 [3, 8]: 8.97; pIC50 [4, 9]: 8.14; pIC50 [5, 10]: 8.95; pIC50 [6, 11]: 9.28

With `CC[C@@]1(O)C(=O)OCc2c1cc1n(c2=O)Cc2c-1nc1cc(F)c(C)c3c1c2[C@@H](NC(=O)[C@H](C)O)CC3` [Compound 11, reference compound] as the compound, how does the logD hydrocarbon water ([1]; LogP) read?
Its logD hydrocarbon water is 2.5.

For `CC[C@@]1(O)C(=O)OCc2c1cc1n(c2=O)Cc2c-1nc1cc(F)c(C)c3c1c2[C@@H](NC(=O)[C@@H](C)O)CC3` [Compound 12, reference compound], which logD hydrocarbon water ([1]; LogP) is on record?
Its logD hydrocarbon water is 2.5.

Which LogP [1] does the source give for `CC[C@@]1(O)C(=O)OCc2c1cc1n(c2=O)Cc2c-1nc1cc(F)c(C)c3c1c2[C@@H](NC(=O)[C@H](O)C(F)(F)F)CC3` [Compound 13, reference compound] here?
The LogP was 2.6.

Which logD hydrocarbon water ([1]; LogP) does the source give for `CC[C@@]1(O)C(=O)OCc2c1cc1n(c2=O)Cc2c-1nc1cc(F)c(C)c3c1c2[C@@H](NC(=O)[C@@H](O)C(F)(F)F)CC3` [Compound 14, reference compound] here?
Its logD hydrocarbon water is 2.6.

With `CC[C@@]1(O)C(=O)OCc2c1cc1n(c2=O)Cc2c-1nc1cc(F)c(C)c3c1c2[C@@H](NC(=O)[C@@H](O)C1CC1)CC3` [Compound 15, reference compound] as the compound, how does the logD hydrocarbon water ([1]; LogP) read?
The logD hydrocarbon water was 2.7.

With `CC[C@@]1(O)C(=O)OCc2c1cc1n(c2=O)Cc2c-1nc1cc(F)c(C)c3c1c2[C@@H](NC(=O)[C@H](O)C1CC1)CC3` [Compound 16, reference compound] as the compound, how does the logD hydrocarbon water ([1]; LogP) read?
The logD hydrocarbon water was 2.6.

Which results are given for `CC[C@@]1(O)C(=O)OCc2c1cc1n(c2=O)Cc2c-1nc1cc(F)c(C)c3c1c2[C@@H](NC(=O)CO)CC3` [Dxd, reference compound]?
pIC50 ([2]; A431, 3 days, read-out: IC50): 8.30; pIC50 ([3]; BxPc-3, 3 days, read-out: IC50): 8.40; pIC50 ([4]; SK-BR-3, 3 days, read-out: IC50): 7.71; pIC50 ([5]; SW620, 3 days, read-out: IC50): 8.71; pIC50 ([6]; MDA-MB-468, 3 days, read-out: IC50): 7.97
